Reference: US9328138B2 (priority 2011, dated 2016)
pKi: −log10 of the molar value.

Columns and labels:
[1] = molecular target: T1, HCV genotype 1b (BK) NS3 modified enzyme with a R155K mutation (Hepatitis C virus genotype 1b, UniProt P26663, R1181K); experiment: HCV NS3 protease time-resolved fluorescence (TRF) assay, genotype 1b R155K; type: biochemical; conditions: Ki 1b R155K, genotype 1b (BK) NS3 R155K; single value
T1 construct: HCV genotype 1b (BK) NS3 modified enzyme
Outline: (§1)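 NS3/NS4A protease was pre-incubated 10 min with inhibitor in 50 mM HEPES pH 7.5, 150 mM NaCl, 15% glycerol, 0.15% Triton X-100, 10 mM DTT, 0.1% PEG 8000. TRF peptide substrate (25 nM final) was hydrolysed for 6 h at room temperature. IC50 came from four-parameter fits.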

[2] = molecular target: HCV NS3 protease genotype 3a (3A-1) (Hepatitis C virus genotype 3a, UniProt Q81258); experiment: HCV NS3 protease time-resolved fluorescence (TRF) assay, genotype 3a; type: biochemical; conditions: Ki 3a
Outline: as §1

Compound	pKi [1]	pKi [2]
C=C[C@@H]1C[C@]1(NC(=O)[C@@H]1C[C@@H]2CN1C(=O)[C@H](C(C)(C)C)NC(=O)O[C@@H]1C[C@H]1CCCCCc1c(nc3ccccc3c1OCCCN1CCOCC1)O2)C(=O)NS(=O)(=O)C1(C)CC1 [Example 116, (1aR,5S,8S,10R,22aR)-5-tert-butyl-N-[(1R,2S)-2-ethenyl-1-{[(1-methylcyclopropyl)sulfonyl]carbamoyl}cyclopropyl]-17-[3-(morpholin-4-yl)propoxy]-3,6-dioxo-1,1a,3,4,5,6,9,10,18,19,20,21, 22,22a-tetradeca hydro-8H-7,10-methanocyclopropa [18,19][1,10,3,6]dioxadiazacyclo nonadecino[11,12-b]quinoline-8-carboxamide]	9.77	8.80
C=C[C@@H]1C[C@]1(NC(=O)[C@@H]1C[C@@H]2CN1C(=O)[C@H](C(C)(C)C)NC(=O)O[C@@H]1C[C@H]1CCCCCc1c(nc3ccccc3c1OCCCN1CCCC1)O2)C(=O)NS(=O)(=O)C1(C)CC1 [Example 117, (1aR,5S,8S,10R,22aR)-5-tert-butyl-N-[(1R,2S)-2-ethenyl-1-{[(1-methylcyclopropyl)sulfonyl]carbamoyl}cyclopropyl]-3,6-dioxo-17-[3-(pyrrolidin-1-yl)propoxy]-1,1a,3,4,5,6,9,10,18,19,20,21,22,22a-tetradeca hydro-8H-7,10-methano cyclopropa[18,19][1,10,3,6] dioxadiazacyclononadecino [11,12-b]quinoline-8-carboxamide]	10.10	9.03
C=C[C@@H]1C[C@]1(NC(=O)[C@@H]1C[C@@H]2CN1C(=O)[C@H](C(C)(C)C)NC(=O)O[C@@H]1C[C@H]1CCCCCc1c(nc3ccccc3c1OCCCN1CCCC1=O)O2)C(=O)NS(=O)(=O)C1(C)CC1 [Example 118, (1aR,5S,8S,10R,22aR)-5-tert-butyl-N-[(1R,2S)-2-ethenyl-1-{[(1-methylcyclopropyl)sulfonyl]carbamoyl}cyclopropyl]-3,6-dioxo-17-[3-(2-oxopyrrolidin-1-yl)propoxy]-1,1a,3,4,5,6,9,10,18,19,20,21,22,22a-tetradeca hydro-8H-7,10-methano cyclopropa[18,19][1,10,3,6] dioxadiazacyclononadecino [11,12-b]quinoline-8-carboxamide]	10.18	9.05
C=C[C@@H]1C[C@]1(NC(=O)[C@@H]1C[C@@H]2CN1C(=O)[C@H](C(C)(C)C)NC(=O)O[C@@H]1C[C@H]1CCCCCc1c(nc3ccccc3c1OC)O2)C(=O)NS(=O)(=O)C1(C)CC1 [Example 119]	9.92	8.49
C=C[C@@H]1C[C@]1(NC(=O)[C@@H]1C[C@@H]2CN1C(=O)[C@H](C(C)(C)C)NC(=O)O[C@@H]1C[C@H]1CCCCCc1c(nc3ccccc3c1O)O2)C(=O)NS(=O)(=O)C1(C)CC1 [Example 120, (1aR,5S,8S,10R,22aR)-5-tert-butyl-N-[(1R,2S)-2-ethenyl-1-{[(1-methylcyclopropyl)sulfonyl]carbamoyl}cyclopropyl]-17-hydroxy-3,6-dioxo-1,1a,3,4,5,6,9,10,18, 19,20,212,22,22a-tetradeca hydro-8H-7,10-methanocyclopropa [18,19][1,10,3,6]dioxadiazacyclo-nonadecino [11,12-b]quinoline-8-carboxamide]	10.21	8.96
C=C[C@@H]1C[C@]1(NC(=O)[C@@H]1C[C@@H]2CN1C(=O)[C@H](C1CCCC1)NC(=O)O[C@@H]1C[C@H]1CCCCCc1c(nc3ccccc3c1OCCN1CCOCC1)O2)C(=O)NS(=O)(=O)C1(C)CC1 [Example 121, (1aR,5S,8S,10R,22aR)-5-cyclopentyl-N-[(1R,2S)-2-ethenyl-1-{[(1-methylcyclopropyl)sulfonyl]carbamoyl}cyclopropyl]-17-[2-(morpholin-4-yl)ethoxy]-3,6-dioxo-1,1a,3,4,5,6,9,10,18,19,20,21,22, 22a-tetradeca hydro-8H-7,10-methanocyclopropa[18,19][1,10,3,6] dioxadiazacyclononadecino [11,12-b]quinoline-8-carboxamide]	9.42	7.92
C=C[C@@H]1C[C@]1(NC(=O)[C@@H]1C[C@@H]2CN1C(=O)[C@H](C1CCCCC1)NC(=O)O[C@@H]1C[C@H]1CCCCCc1c(nc3ccccc3c1OCCN1CCOCC1)O2)C(=O)NS(=O)(=O)C1(C)CC1 [Example 122, (1aR,5S,8S,10R,22aR)-5-cyclohexyl-N-[(1R,2S)-2-ethenyl-1-{[(1-methylcyclopropyl)sulfonyl]carbamoyl}cyclopropyl]-17-[2-(morpholin-4-yl)ethoxy]-3,6-dioxo-1,1,a,3,4,5,6,9,10,18,19,20,21, 22,22a-tetradecahydro-8H-7,10-methanocyclopropa[18,19][1,10,3,6] dioxadiazacyclononadecino [11,12-b]quinoline-8-carboxamide]	9.48	8.06
C=C[C@@H]1C[C@]1(NC(=O)[C@@H]1C[C@@H]2CN1C(=O)[C@H](C1(C)CCCCC1)NC(=O)O[C@@H]1C[C@H]1CCCCCc1c(nc3ccccc3c1OCCN1CCOCC1)O2)C(=O)NS(=O)(=O)C1(C)CC1 [Example 123, (1aR,5S,8S,10R,22aR)-N-[(1R,2S)-2-ethenyl-1-{[(1-methylcyclopropyl)sulfonyl]carbamoyl}cyclopropyl]-5-(1-methylcyclohexyl)-17-[2-(morpholin-4-yl)ethoxy]-3,6-dioxo-1,1a,3,4,5,6,9,10,18,19,20,21,22,22a-tetradecahydro-8H-7,10-methanocyclopropa[18,19] [1,10,3,6]dioxadiazacyclononadecino [11,12-b]quinoline-8-carboxamide]	9.31	8.21
C=C[C@@H]1C[C@]1(NC(=O)[C@@H]1C[C@@H]2CN1C(=O)[C@H](C(C)C)NC(=O)O[C@@H]1C[C@H]1CCCCCc1c(nc3ccccc3c1OCCN1CCOCC1)O2)C(=O)NS(=O)(=O)C1(C)CC1 [Example 124, (1aR,5S,8S,10R,22aR)-N-[(1R,2S)-2-ethenyl-1-{[(1-methylcyclopropyl)sulfonyl]carbamoyl}cyclopropyl]-17-[2-(morpholin-4-yl)ethoxy]-3,6-dioxo-5-(propan-2-yl)-1,1a,3,4,5,6,9,10,18,19,20,21,22,22a-tetradeca hydro-8H-7,10-methano cyclopropa[18,19][1,10,3,6] dioxadiazacyclonona decino[11,12-b]quinoline-8-carboxamide]	9.10	8.00
C=C[C@@H]1C[C@]1(NC(=O)[C@@H]1C[C@@H]2CN1C(=O)[C@H](CC1CCCCC1)NC(=O)O[C@@H]1C[C@H]1CCCCCc1c(nc3ccccc3c1OCCN1CCOCC1)O2)C(=O)NS(=O)(=O)C1(C)CC1 [Example 125, (1aR,5S,8S,10R,22aR)-5-(cyclohexylmethyl)-N-[(1R,2S)-2-ethenyl-1-{[(1-methylcyclopropyl)sulfonyl]carbamoyl}cyclopropyl]-17-[2-(morpholin-4-yl)ethoxy]-3,6-dioxo-1,1a,3,4,5,6,9,10,18,19,20, 21,22,22a-tetradecahydro-8H-7,10-methanocyclopropa [18,19][1,10,3,6]dioxadiazacyclo nonadecino[11,12-b]quinoline-8-carboxamide]	8.39	6.94
C=C[C@@H]1C[C@]1(NC(=O)[C@@H]1C[C@@H]2CN1C(=O)[C@H](C(C)(C)C)NC(=O)O[C@@H]1C[C@H]1CCCCCc1c(nc3c(F)cccc3c1OCCN1CCOCC1)O2)C(=O)NS(=O)(=O)C1(C)CC1 [Example 126, (1aR,5S,8S,10R,22aR)-5-tert-butyl-N-[(1R,2S)-2-ethenyl-1-{[(1-methylcyclopropyl)sulfonyl]carbamoyl}cyclopropyl]-13-fluoro-17-[2-(morpholin-4-yl)ethoxy]-3,6-dioxo-1,1a,3,4,5,6,9,10,18,19, 20,21,22,22a-tetradecahydro-8H-7,10-methanocyclopropa[18,19][1,10,3,6] dioxadiazacyclononadecino[11,12-b] quinoline-8-carboxamide]	9.40	8.11
C=C[C@@H]1C[C@]1(NC(=O)[C@@H]1C[C@@H]2CN1C(=O)[C@H](C(C)(C)C)NC(=O)O[C@@H]1C[C@H]1CCCCCc1c(nc3c(OC)cccc3c1OCCN1CCOCC1)O2)C(=O)NS(=O)(=O)C1(C)CC1 [Example 127, (1aR,5S,8S,10R,22aR)-5-tert-butyl-N-[(1R,2S)-2-ethenyl-1-{[(1-methylcyclopropyl)sulfonyl]carbamoyl}cyclopropyl]-13-methoxy-17-[2-(morpholin-4-yl)ethoxy]-3,6-dioxo-1,1a,3,4,5,6.9, 10,18,19,20,21,22,22a-tetradecahydro-8H-7,10-methanocyclopropa [18,19][1,10,3,6]dioxadiaza cyclononadecino[11,12-b]quinoline-8-carboxamide]	9.96	8.68
C=C[C@@H]1C[C@]1(NC(=O)[C@@H]1C[C@@H]2CN1C(=O)[C@H](C1CCCCC1)NC(=O)O[C@@H]1C[C@H]1CCCCCc1c(nc3c(OC)cccc3c1OCCN1CCOCC1)O2)C(=O)NS(=O)(=O)C1(C)CC1 [Example 128, (1aR,5S,8S,10R,22aR)-5-cyclohexyl-N-[(1R,2S)-2-ethenyl-1-{[(1-methylcyclopropyl)sulfonyl]carbamoyl}cyclopropyl]-13-methoxy-17-[2-(morpholin-4-yl)ethoxy]-3,6-dioxo-1,1a,3,4,5,6,9, 10,18,19,20,21,22,22a-tetradecahydro-8H-7,10-methanocyclopropa [18,19][1,10,3,6]dioxadiaza cyclononadecino[11,12-b]quinoline-8-carboxamide]	9.39	7.89
